Measured values: patent US6838580B2, “Opioid derivative” (Teikoku Seiyaku Co., Ltd., priority 2002, dated 2005)
Entries after “also recorded” stand apart in the source; their conditions may differ. Marks after values point to notes of the source that are not given here.

Columns and labels:
[1] = tested on: SD Male rats; experiment: Analgesic effect, Randoll-Seritto hind limb pressure method, subcutaneous administration; format: in vivo; details: rat, s.c.
Description: (§1) SD Male rats, weighing 110 to 130 g, were used. One group consisted of five rats. The analgesic effects were examined by a Randoll-Seritto method. […] The threshold was expressed in mm Hg. During the measurement, the upper limit of the pressure applied to a hind limb was 100 mm Hg in order to avoid damage of the tissues.
(§2) 2) When administered intravenously (i.v.), a volume of 2 ml/kg weight was administered to a tail vein and, when administered subcutaneously (s.c.), a volume of 2 ml/kg weight was subcutaneously administered to the back. In the case of intravenous administration, a 1 mg/kg, 3 mg/kg or 10 mg/kg compound of Ex.1 administration group, a 1 mg/kg, 3 mg/kg or 10 mg/kg compound of Ex.4 administration group, a 2 ml/kg physiological saline administration group and a 5 mg/kg morphine hydrochloride administration group were made, respectively. In the case of subcutaneous administration, a 10 mg/kg, 30 mg/kg or 100 mg/kg compound of Ex.1 administration group, a 10 mg/kg, 30 mg/kg or 100 mg/kg compound of Ex.4 administration group, a 2 ml/kg physiological saline administration group and a 5 mg/kg morphine hydrochloride administration group were made, respectively. Observation of the analgesic action was performed 15 minutes, 30 minutes, 1 hour and 2 hours after administration in the case of intravenous administration, 30 minutes, 1 hour, 2 hours and 3 hours after administration in the case of subcutaneous administration, respectively.
(§3) In order to perform a significant difference test between respective administration groups and control groups, and between values at respective times before administration and after administration, a Dunnet multiple comparative test method was used. In the statistical processing for performing a significant difference test between morphine hydrochloride administration groups and control groups, Student t-test was used. For performing a significant difference test between values at respective times before administration and after administration in morphine hydrochloride administration groups, a Dunnet multiple comparative test method was used. A significant level was at 5 or lower % risk rate (two-tailed test).

[2] = molecular target: T1, δ-opioid receptor (Mus musculus, UniProt P32300); experiment: Mouse seminiferous tract (MVD) assay, inhibition of electrically stimulated constriction; format: cell-based; details: agonist activity, read-out: MVD (IC50 ± S.E.)
T1 construct: using mouse seminiferous tract in place of guinea pig ileum; from tissue; host or cells: mouse seminiferous tract (vas deferens, MVD), organ bath
T1 sequence (P32300 whole entry): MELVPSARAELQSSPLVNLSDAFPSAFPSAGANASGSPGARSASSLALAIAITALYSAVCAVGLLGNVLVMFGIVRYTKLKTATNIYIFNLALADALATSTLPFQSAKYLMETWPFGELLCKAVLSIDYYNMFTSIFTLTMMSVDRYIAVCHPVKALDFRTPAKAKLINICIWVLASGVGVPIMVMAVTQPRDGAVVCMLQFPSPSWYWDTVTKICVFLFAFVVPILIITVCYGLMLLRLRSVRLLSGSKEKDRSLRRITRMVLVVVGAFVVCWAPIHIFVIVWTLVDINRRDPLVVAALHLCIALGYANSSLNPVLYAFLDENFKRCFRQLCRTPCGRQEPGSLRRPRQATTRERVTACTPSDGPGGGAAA

[3] = tested on: SD Male rats; experiment: Analgesic effect, Randoll-Seritto hind limb pressure method, intravenous administration; format: in vivo; details: rat, i.v.
Description: as §1, §2, §3

[4] = molecular target: T2, μ-opioid receptor (Rattus norvegicus, UniProt P33535); experiment: Competitive receptor binding assay, synaptic membrane fraction, [3H]DAGO; details: for Ki: rat brain synaptic membrane, [3H]DAGO, read-out: Affinity of receptor (Ki, nM) μ; for Selectivity δ/μ: ratio Ki δ / Ki μ
T2 construct: synaptic membrane fraction obtained from the rat brain tissue; from tissue; host or cells: Sprague-Dawley rat brain without cerebellum, synaptic membrane (P2) fraction
T2 sequence (P33535 whole entry): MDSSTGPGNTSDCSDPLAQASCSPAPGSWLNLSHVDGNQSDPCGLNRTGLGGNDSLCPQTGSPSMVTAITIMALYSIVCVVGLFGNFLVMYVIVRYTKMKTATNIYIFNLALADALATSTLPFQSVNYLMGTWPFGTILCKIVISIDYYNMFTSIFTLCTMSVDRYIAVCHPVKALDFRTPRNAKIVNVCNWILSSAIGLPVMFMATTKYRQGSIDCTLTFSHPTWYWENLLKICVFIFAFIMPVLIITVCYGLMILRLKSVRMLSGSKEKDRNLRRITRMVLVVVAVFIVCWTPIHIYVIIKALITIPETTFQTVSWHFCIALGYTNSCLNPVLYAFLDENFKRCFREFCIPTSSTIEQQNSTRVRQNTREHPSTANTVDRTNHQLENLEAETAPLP
Description: Regarding the opioid peptide derivatives synthesized in Examples and Reference Examples, the μ- and δ-opioid receptor affinities were obtained by a competitive receptor assay using the synaptic membrane fraction obtained from the rat brain tissue according to the known methods. That is, Sprague-Dawley rats having an average weight of 150-180 g were killed by decapitation, the brain tissue from which cerebellum had been removed was homogenized in 0.32M sucrose and 1 mM HEPES (pH 7.5) containing 50 μg/ml soybean trypsin inhibitor, fractionated and centrifuged to obtain the synaptic membrane fraction (P2 fraction), which was pre-incubated in 50 mM HEPES (pH 7.5) containing 100 mM NaCl, 0.1 mM GDP and soybean trypsin inhibitor to remove endogenous ligands from the P2 fraction.
A competitive receptor binding assay (Radiolabeled receptor assay: RRA) based on an exchange reaction between a radioactive ligand for the synaptic membrane fraction and a peptide derivative to be tested was performed by using tritium-labeled [^3H]DAGO which is a μ-opioid receptor agonist and tritium-labeled [^3H]DPDPE which has the high δ-opioid receptor selectivity, and incubating an aliquot of the synaptic membrane with the peptide derivative to be tested for a period of time. Upon this, an exchange reaction between a ligand was performed under constant conditions, the radiation remaining in the synaptic membrane fraction was measured, and an amount of the ligand adsorbed onto the synaptic membrane fraction is calculated. By assuming that binding with a receptor occurs in competition between a radioactive ligand and an end ligand, the concentration (IC50) at which the maximum specific binding of the radioactive ligand is 50% inhibited was obtained, from which the affinity constant (Ki) was calculated by a method of Cheng et al. (Biochem. Pharmcol., 22, 3099(1973)).

[5] = 10 mg/kg, before administration
[6] = 30 mg/kg, before administration
[7] = 100 mg/kg, before administration

SMILES | Change in escape reaction threshold / analgesic effect, in words ([1]; 10 mg/kg) | Threshold (mmHg) ([1]; 10 mg/kg, 0.5 hr) | Threshold (mmHg) ([1]; 10 mg/kg, 1 hr) | Threshold (mmHg) ([1]; 10 mg/kg, 2 hr) | Threshold (mmHg) ([1]; 10 mg/kg, 3 hr) | Threshold (mmHg) [1, 5] [mmHg] | Change in escape reaction threshold / analgesic effect, in words ([1]; 30 mg/kg) | Threshold (mmHg) ([1]; 30 mg/kg, 0.5 hr) | Threshold (mmHg) ([1]; 30 mg/kg, 1 hr) | Threshold (mmHg) ([1]; 30 mg/kg, 2 hr) | Threshold (mmHg) ([1]; 30 mg/kg, 3 hr) | Threshold (mmHg) [1, 6] [mmHg] | Change in escape reaction threshold / analgesic effect, in words ([1]; 100 mg/kg) | Threshold (mmHg) ([1]; 100 mg/kg, 0.5 hr) | Threshold (mmHg) ([1]; 100 mg/kg, 1 hr) | Threshold (mmHg) ([1]; 100 mg/kg, 2 hr) | Threshold (mmHg) ([1]; 100 mg/kg, 3 hr) | Threshold (mmHg) [1, 7] [mmHg] | IC50 [2] [nM] | Threshold (mmHg) ([3]; 3 mg/kg, 0.25 hr) | also measured
Cc1cc(O)cc(C)c1C[C@H](N)C(=O)NCCCCNC(=O)[C@@H](N)Cc1c(C)cc(O)cc1C.Cl.Cl [Ex.1, 1,4-Bis-(Dmt-amino)butane.2HCl] | tendency of an increase in the threshold was seen; also recorded: exhibited the significant analgesic effect as compared with control groups | 55 ± 5 | 62 ± 6 | 58 ± 3 | 57 ± 2 | 47 ± 2 | significant increase in the threshold was seen 1 hour and 2 hours after administration | 52 ± 4 | 65 ± 5^$$ mmHg | 68 ± 3**^,$$ mmHg | 59 ± 4 | 47 ± 2 | significant increase was seen at any measuring time after administration; also recorded: approximately comparative to the effect by morphine 5 mg/kg subcutaneous administration | 86 ± 2**^,$$ mmHg | 77 ± 2**^,$$ mmHg | 77 ± 2**^,$$ mmHg | 70 ± 3**^,$$ mmHg | 47 ± 2 | > 10000 | 55 ± 2 | Threshold (mmHg) ([3]; 1 mg/kg, before administration): 48 ± 2 mmHg; Threshold (mmHg) ([3]; 3 mg/kg, 0.5 hr): 56 ± 3 mmHg; Threshold (mmHg) ([3]; 3 mg/kg, 1 hr): 52 ± 4 mmHg; Threshold (mmHg) ([3]; 3 mg/kg, 2 hr): 49 ± 2 mmHg; Threshold (mmHg) ([3]; 3 mg/kg, before administration): 48 ± 2 mmHg; Change in escape reaction threshold / analgesic effect, in words ([3]; 10 mg/kg): significant increase in the threshold was seen 15 minutes after administration; also recorded: exhibited an analgesic effect but is weaker as compared with the case of morphine 10 mg/kg administration and its duration time was shorter; Threshold (mmHg) ([3]; 10 mg/kg, 0.25 hr): 60 ± 2**^,$$ mmHg; Threshold (mmHg) ([3]; 10 mg/kg, 0.5 hr): 56 ± 3 mmHg; Threshold (mmHg) ([3]; 10 mg/kg, 1 hr): 54 ± 2 mmHg; Threshold (mmHg) ([3]; 10 mg/kg, 2 hr): 53 ± 2 mmHg; Threshold (mmHg) [3, 5]: 48 ± 2 mmHg; Ki [4]: 0.041 ± 0.003 nM; Selectivity δ/μ [4]: 1300
Cc1cc(O)cc(C)c1C[C@H](N)C(=O)NCCCCCCNC(=O)[C@@H](N)Cc1c(C)cc(O)cc1C [Ex.4, 1,6-Bis(Dmt-amino)hexane.2HCl] | tendency of a slight increase in the threshold was seen | 58 ± 3 | 58 ± 5 | 55 ± 5 | 53 ± 1 | 47 ± 2 | significant increase was seen 2 hours after administration; also recorded: exhibited the significant analgesic effect 2 hours after administration | 59 ± 3 | 56 ± 3 mmHg | 65 ± 5^$$ mmHg | 59 ± 4 | 47 ± 2 | significant difference was seen in the measured values 30 minutes, 1 hour and 2 hours after administration; also recorded: significant analgesic effect was exhibited from 30 minutes after administration | 69 ± 6**^,$$ mmHg | 68 ± 3*^,$ mmHg | 75 ± 8**^,$$ mmHg | 58 ± 2 mmHg | 48 ± 2 | > 10000 | 57 ± 4 | Analgesic effect compared with compound of Ex.1, in words [1]: weaker and has a shorter duration time than in compound of Ex.1; Threshold (mmHg) ([3]; 3 mg/kg, 0.5 hr): 54 ± 3 mmHg; Threshold (mmHg) ([3]; 3 mg/kg, 1 hr): 54 ± 5 mmHg; Threshold (mmHg) ([3]; 3 mg/kg, 2 hr): 53 ± 3 mmHg; Threshold (mmHg) ([3]; 3 mg/kg, before administration): 48 ± 2 mmHg; Threshold (mmHg) ([3]; 10 mg/kg, 0.25 hr): 54 ± 3 mmHg; Threshold (mmHg) ([3]; 10 mg/kg, 0.5 hr): 53 ± 3 mmHg; Threshold (mmHg) ([3]; 10 mg/kg, 1 hr): 57 ± 2 mmHg; Threshold (mmHg) ([3]; 10 mg/kg, 2 hr): 52 ± 2 mmHg; Threshold (mmHg) [3, 5]: 49 ± 2 mmHg; Change in escape reaction threshold / analgesic effect, in words ([3]; all doses (1, 3, 10 mg/kg)): significant change in the threshold was not seen at any measuring time at any dose; also recorded: no analgesic effect was seen; Ki [4]: 0.053 ± 0.01 nM; Selectivity δ/μ [4]: 870
